Measurements as given in patent US7943606B2, “Compositions and methods to control abnormal cell growth” (CanCure Laboratories, LLC, priority 2005, dated 2011).

How the values were obtained:
choline transport = experiment: [14C]choline uptake and metabolism in AN3CA, MCF-7 and MEL-28 cancer cells; format: cell-based, human
Description: MEL-28 and MCF-7 cells were cultured in MEM medium supplemented with 10% fetal bovine serum (FBS) and in DMEM medium supplemented with 10% FBS, respectively. The AN3CA human endometrial adenocarcinoma cells were maintained in Eagle's MEM containing 10% FBS. Cancer cells were grown up to confluency in 12-well plates in 10% fetal-bovine serum-containing medium, then incubated in the presence of 1 μCi of [methyl-^14C]choline (bought from Amersham; Piscataway, N.J.) for 2 hours. Cells were first rapidly (within 30 seconds) washed three times with 4 ml of serum-free medium, then extracted with ice-cold methanol. This was followed by the determination of cellular free radiolabeled choline and phosphocholine (PCho) by column chromatography as described earlier [Kiss, Z. and Crilly, K. S. (1995), “Tamoxifen inhibits uptake and metabolism of ethanolamine and choline in multidrug-resistant, but not in drug-sensitive, MCF-7 human breast carcinoma cells,” FEBS Lett. 360, 165-168], and the separation and determination of radiolabeled phosphatidylcholine (PtdCho) by thin layer chromatography as indicated in Kiss [Kiss, Z. (1996), “Direct proof that phorbol ester accelerates the use of choline phosphate for phosphatidylcholine synthesis in intact cells,” Arch. Biochem. Biophys. 335, 191-196].
MCF-7 and MEL-28 cells were cultured as described earlier. The AN3CA human endometrial adenocarcinoma cells were maintained in Eagle's MEM containing 10% FBS. Each cell type was grown in 12-well plates to confluency and then incubated with 1 μCi of [methyl-^14C]choline for 2 hours in the absence (□) or presence of 100 μM CCDTHT ? or 0.5 mM HC-3 (▪), followed by the determination of cellular contents of radiolabeled choline (A), PCho (B) and PtdCho (C), as indicated in FIG. 9. […] Thus, if both CCDTHT and HC-3 influenced cell viability solely via inhibition of choline metabolism, then these agents should similarly affect cell viability, at least at the concentrations used in the choline transport experiment.

NIH 3T3 cells = experiment: Viability of NIH 3T3 normal fibroblasts (MTT assay); format: cell-based; settings: 0-200 μM, 72 hours, MTT
Description: (§1) To quantify cell death, around the time when significant and characteristic morphological changes took place, cells were pulse-labeled for 10 minutes with [^3H]thymidine to measure DNA activity as described elsewhere [Tomono, M. and Kiss, Z. (1995), “Ethanol enhances the stimulatory effects of insulin and insulin-like growth factor-I on DNA synthesis in NIH 3T3 fibroblasts,” Biochem. Biophys. Res. Commun. 208, 63-67]. Also, cells were collected as suspensions using trypsin, an established method in cell biology, followed by re-plating of cells in fresh tissue culture medium. If no viable cells were obtained after one week in culture, it meant that the cells at the time of re-plating were dead. Survival values obtained with untreated cells were considered 100%. For the determination of relative number of viable cells after treatments, in most cases the MTT assay was used. This calorimetric assay is based on the ability of living cells, but not dead cells, to reduce 3-(4,5-dimethyl thiazol-2-yl)-2,5-diphenyltetrazolium bromide [Carmichael, J, De Graff, W. G., Gazdar, A. F., Minna, J. D. and Mitchell, J. B. (1987), “Evaluation of tetrazolium-based semi-automated calorimetric assay: Assessment of chemosensitivity testing,” Cancer Res. 47, 936-942]. For this assay, cells were plated in 96-well plates, and the MTT assay was performed both in untreated and treated cell cultures. The MTT assay also was performed at the start of treatments to allow assessment of proliferation rates in the control and treated cell cultures.
(§2) The NIH 3T3 (normal) mouse fibroblast, A431 human epidermoid adenocarcinoma, and MCF-7 human breast cancer cells were cultured in DMEM medium containing 10% FBS. The MEL-28 human melanoma cells were cultured in MEM medium containing 10% FBS. The HT-29 human colon adenocarcinoma cells were cultured in McCoy's 5a medium containing 10% FBS. The A549 human lung carcinoma cells were maintained in Ham's F12K medium containing 10% FBS. Cells were seeded into 96-well plates and treated at ˜70-90% confluency. Two hours before treatments the medium was changed for fresh 10% serum medium, and then the cells were incubated for 72 hours in the presence of 0-200 μM of CCompound1 (●) or CCompound3 (CCDTHT) (▴), as indicated. The MTT assay was used to determine cell viability after treatments. The values, shown in FIGS. 5A-5F and expressed as percent decrease in viability compared to the untreated control cells, are the mean±std. dev. of 8 incubations in one experiment. Similar results were obtained in another experiment.
(§3) NIH3T3, T47D, A-431, HT-29, and MEL-28 cells were cultured as indicated earlier. CaOV-3 human ovarian cancer cells were cultured in DMEM containing 10% FBS. ZR-75-1 human estrogen receptor-positive breast cancer cells were maintained in RPMI 1640 medium supplemented with 10% FBS. HTB-157 human fetal fibroblasts, MEL-24 human malignant melanoma cells, Hep G2 human hepatoblastoma cells, and CaCO-2 human colon adenocarcinoma cells were maintained in Eagles's MEM containing 10% FBS. MB-231 human estrogen receptor-negative breast cancer cells were maintained in Leibovitz's L-15 medium supplemented with 10% FBS. Cells were seeded into 96-well plates and treated at ˜70-90% confluency. Two hours prior to treatments the medium was changed for fresh 10% serum medium, and then the cells were incubated for 10 days in the absence (□) or presence of 50 μM CCDTHT ? or 100 μM CCDTHT (▪). The medium was changed and the cells were re-treated on days 3 and 6. The MTT assay was used to determine cell viability on day 10. The data, shown in FIG. 6, are the mean±std. dev. of 8 incubations in one experiment. (The experiment was repeated twice with similar results).
(§4) NIH 3T3, MEL-28, MEL-24, CaOV-3, ZR-75-1, and T47D cells were cultured as described above. The OVCAR human ovarian cancer cells were cultured in DMEM containing 10% FBS. Cells were seeded into 96-well plates and used at ˜60-80% confluency. […]

MCF-7 cells = experiment: Viability of MCF-7 breast cancer cells; format: cell-based, human; settings: 0-200 μM, 72 hours, MTT
Description: as §1
About 50% confluent cultures of MCF-7 cells, cultured in 12-well plates in Dulbecco's modified Eagle's medium (DMEM) supplemented with 10% FBS, were either untreated (FIG. 3A), or were treated with 100 μM CCDTHT (CCompound3) for 72 hours (FIG. 3B). […] This experiment was repeated three times with similar results. In some experiments, cells from the CCDTHT-treated cultures were seeded into 96-well plates, and the MTT assay was performed 96 hours later to test for viable cells.
as §2
NIH 3T3, AN3CA, HT-29, MEL-28, and MCF-7 cells were cultured as described earlier. Cells were seeded into 96-well plates; when cells were ˜80-90% confluent, the medium was changed for fresh 10% serum-containing medium, followed by incubations for 72 hours in the absence (□) or presence of 100 μM CCDTHT ? , 2 mM ethanolamine (Etn) ? , or 100 μM CCDTHT+2 mM Etn (▪). The MTT assay was used to determine cell viability. […]

[1] = Toxicological studies in mice; format: in vivo, mouse; settings: 200-500 μmole/animal
Description: Accordingly, a well-tolerated dose for CCDTHT in mice is 450 μmole/animal (weighing about 25 g) which corresponds to a dose of 4.6 mg/kg. Therapeutically effective concentrations in humans will exert maximal inhibitory effects on the growth of non-healthy tissues without causing significant toxicity in normal healthy tissues.
Parallel toxicological studies also have been performed with 200-500 μmole/animal doses of the commercially available CCompound1. […] CCompound26, which may have an even better toxicity profile based on in vitro experiments with normal cells, was synthesized much later and has not yet been tested in animal experiments.

A-431 cells = experiment: Viability of A-431 epidermoid adenocarcinoma cells (MTT assay); format: cell-based, human; settings: 0-200 μM, 72 hours, MTT
Description: as §1, §2, §3, §4

[2] = cited from earlier work

## C[N+]1(C)CCOC(O)(c2ccc(-c3ccc(C4(O)C[N+](C)(C)CCO4)cc3)cc2)C1.[Br-].[Br-] (stereo not shown) [HC-3]
Choline transport; 100 μM CCDTHT or 0.5 mM HC-3, 2 hours, each cell line
  inhibitory effects on choline uptake and metabolism (choline, PCho, PtdCho): comparably strong inhibitory effects
Choline transport; 0.1 mM
  inhibition of choline transport: 20-25%

## Cc1c(OCC(O)C[N+](C)(C)C)cc2c(=O)c3ccccc3sc2c1C.[Cl-] (stereo not shown) [CCcompound1, [3-(3,4-Dimethyl-9-oxo-9H-thioxanthen-2-yloxy)-2-hydroxypropyl]trimethyl-ammonium chloride, reference compound]
NIH 3T3 cells
  toxic effects in NIH 3T3 (normal) fibroblast cultures: none of these compounds exerted major toxic effects
MCF-7 cells
  decrease in viability, MCF-7: similarly large effects
[1]
  tolerability: similarly well tolerated
A-431 cells
  decrease in viability, A-431: similarly large effects

B1: PALP: human placental alkaline phosphatase, highly purified from commercial (Sigma-Aldrich) PALP (protein, UniProt P05187 23-506, looked up)
Alkaline phosphatase, …: IIPVEEENPDFWNREAAEALGAAKKLQPAQTAAKNLIIFLGDGMGVSTVTAARILKGQKKDKLGPEIPLAMDRFPYVALSKTYNVDKHVPDSGATATAYLCGVKGNFQTIGLSAAARFNQCNTTRGNEVISVMNRAKKAGKSVGVVTTTRVQHASPAGTYAHTVNRNWYSDADVPASARQEGCQDIATQLISNMDIDVILGGGRKYMFRMGTPDPEYPDDYSQGGTRLDGKNLVQEWLAKRQGARYVWNRTELMQASLDPSVTHLMGLFEPGDMKYEIHRDSTLDPSLMEMTEAALRLLSRNPRGFFLFVEGGRIDHGHHESRAYRALTETIMFDDAIERAGQLTSEEDTLSLVTADHSHVFSFGGYPLRGSSIFGLAPGKARDRKAYTVLLYGNGPGYVLKDGARPDVTESESGSPEYRQQSAVPLDEETHAGEDVAVFARGPQAHLVHGVQEQTFIAHVMAFAACLEPYTACDLAPPAGTTD
[2]
  half-life time: 120 to 140 h
